Laboratory results reported in PubChem BioAssay AID328 (DTP/NCI, 2004).
Several values for one entry are separate records, joined by “and”; a condition that tells them apart may be missing. Equal entries are not always repeated. Inconclusive results and toxic doses are left out. How the source made its calls: active means survival T/C of 150% or more; inactive means T/C below 125% in these data.

Tested on: BDF1 mice, P388 leukemia ip, median survival T/C
Assay: NCI In Vivo Anticancer Drug Screen. Data for tumor model P388 Leukemia (intraperitoneal) in B6D2F1 (BDF1) mice
Settings: endpoint: median survival time, higher = longer survival
Procedure, shortened: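 Transplantable tumour in mice; compound vs vehicle dosing; survival scored; ratio of treated to control reported.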

[1] = dose: 12.5 mg/kg/injection, schedule: Q04DX003 (ip), vehicle: saline
[2] = dose: 25.0 mg/kg/injection, schedule: Q04DX003 (ip), vehicle: saline
[3] = dose: 50.0 mg/kg/injection, schedule: Q01DX009 (ip), vehicle: saline with Tween-80
[4] = dose: 50.0 mg/kg/injection, schedule: Q04DX003 (ip), vehicle: saline with Tween-80
[5] = dose: 100.0 mg/kg/injection, schedule: Q01DX009 (ip), vehicle: saline with Tween-80
[6] = dose: 100.0 mg/kg/injection, schedule: Q04DX003 (ip), vehicle: saline with Tween-80
[7] = dose: 200.0 mg/kg/injection, schedule: Q04DX003 (ip), vehicle: saline with Tween-80
[8] = dose: 200.0 mg/kg/injection, schedule: Q01DX009 (ip), vehicle: saline with Tween-80
[9] = dose: 25.0 mg/kg/injection, schedule: Q01DX009 (ip), vehicle: saline with Tween-80
[10] = dose: 100.0 mg/kg/injection, schedule: Q01DX009 (ip), vehicle: saline
[11] = dose: 100.0 mg/kg/injection, schedule: Q04DX003 (ip), vehicle: Klucel (hydroxypropylcellulose) (HPC)
[12] = dose: 200.0 mg/kg/injection, schedule: Q04DX003 (ip), vehicle: Klucel (hydroxypropylcellulose) (HPC)
[13] = dose: 100.0 mg/kg/injection, schedule: Q01DX009 (ip), vehicle: Klucel (hydroxypropylcellulose) (HPC)
[14] = dose: 200.0 mg/kg/injection, schedule: Q01DX009 (ip), vehicle: Klucel (hydroxypropylcellulose) (HPC)
[15] = dose: 400.0 mg/kg/injection, schedule: Q01DX009 (ip), vehicle: Klucel (hydroxypropylcellulose) (HPC)
[16] = dose: 100.0 mg/kg/injection, schedule: Q04DX003 (ip), vehicle: saline
[17] = dose: 200.0 mg/kg/injection, schedule: Q04DX003 (ip), vehicle: saline
[18] = dose: 400.0 mg/kg/injection, schedule: Q04DX003 (ip), vehicle: Klucel (hydroxypropylcellulose) (HPC)
[19] = dose: 50.0 mg/kg/injection, schedule: Q04DX003 (ip), vehicle: saline
[20] = dose: 400.0 mg/kg/injection, schedule: Q04DX003 (ip), vehicle: saline with Tween-80
[21] = dose: 6.25 mg/kg/injection, schedule: Q01DX009 (ip), vehicle: saline with Tween-80
[22] = dose: 12.5 mg/kg/injection, schedule: Q01DX009 (ip), vehicle: saline with Tween-80

Measured: T/C

O=[N+]([O-])c1ccccn1
inactive: dose: 6.25 mg/kg/injection, schedule: Q04DX003 (ip), vehicle: saline 100 % of control | [1] 100 % of control | [2] 104 % of control

O=C(/C=N/O)Nc1cc(Cl)c(Cl)cc1Cl
inactive: [3] 109 % of control | [4] 109 % of control | dose: 75.0 mg/kg/injection, schedule: Q01DX009 (ip), vehicle: saline with Tween-80 113 % of control | [5] 104 % of control | [6] 100 % of control | dose: 150.0 mg/kg/injection, schedule: Q01DX009 (ip), vehicle: saline with Tween-80 118 % of control | [7] 122 % of control

OC/C=[CH]\[Sn]([c]1ccccc1)([c]1ccccc1)[c]1ccccc1
inactive: [3] 89 % of control | [5] 115 % of control | [8] 106 % of control

COc1ccc2c(c1OC)C(=O)OC2(O)C1=NCCc2cc3c(cc21)OCO3 (centres undefined)
inactive: dose: 50.0 mg/kg/injection, schedule: Q01DX005 (ip), vehicle: saline with Tween-80 111 % of control | dose: 100.0 mg/kg/injection, schedule: Q01DX005 (ip), vehicle: saline with Tween-80 98 % of control | dose: 200.0 mg/kg/injection, schedule: Q01DX005 (ip), vehicle: saline with Tween-80 109 % of control

O=[N+]([O-])c1ccc(S(=O)(=O)Cc2ccccc2)c2nonc12
inactive: [9] 112 % of control

[NH-]C(CCC(N)=O)C(=O)O.[NH-]C(CCCCN)C(=O)O.[Zn+2] (centres undefined)
inactive: dose: 50.0 mg/kg/injection, schedule: Q01DX005 (ip), vehicle: saline 106 % of control

COc1ccc(OC)c2c1C(=O)CC2C (centres undefined)
inactive: dose: 25.0 mg/kg/injection, schedule: Q01DX009 (ip), vehicle: saline 105 % of control | dose: 50.0 mg/kg/injection, schedule: Q01DX009 (ip), vehicle: saline 91 % of control | [10] 98 % of control

CC(=O)Nc1ccc([N+](=O)[O-])c(NC(C)=O)n1
inactive: dose: 50.0 mg/kg/injection, schedule: Q04DX003 (ip), vehicle: Klucel (hydroxypropylcellulose) (HPC) 110 % of control | [11] 105 % of control | [12] 100 % of control

C=Cc1c(C)c(O)cc2c1CC[C@@H]1C(C)(C)[C@H](O)[C@H](O)C[C@@]21C
inactive: [13] 102 % of control | [14] 100 % of control | [15] 113 % of control

O=C(O)c1ccc(SSc2ccc(C(=O)O)cn2)nc1
inactive: [13] 92 % of control and 104 % of control | [11] 100 % of control | [16] 118 % of control | [14] 109 % of control and 119 % of control | [12] 100 % of control | [17] 109 % of control | [15] 107 % of control and 109 % of control | [18] 100 % of control | dose: 400.0 mg/kg/injection, schedule: Q04DX003 (ip), vehicle: saline 113 % of control

CCCOC(=O)C1(N)CCCC1
inactive: [5] 100 % of control | [8] 90 % of control

CC1(C)CN(C(C)(C)C)CC(C)(C)C(=O)C1=O
inactive: [1] 90 % of control | [2] 95 % of control | [19] 95 % of control

CN(C)c1ccc(/C=C\c2ccnc3ccc(-c4ccccc4)cc23)cc1
inactive: [3] 94 % of control | [5] 94 % of control | [8] 94 % of control

COC(=O)CCC(=O)/C=C1/Nc2ccccc2C1=O
inactive: [19] 90 % of control | [16] 110 % of control | [17] 120 % of control

Cc1nc(N)sc1CCCl
inactive: dose: 10.0 mg/kg/injection, schedule: Q01DX009 (ip), vehicle: saline 104 % of control | dose: 20.0 mg/kg/injection, schedule: Q01DX009 (ip), vehicle: saline 104 % of control | dose: 40.0 mg/kg/injection, schedule: Q01DX009 (ip), vehicle: saline 100 % of control | dose: 80.0 mg/kg/injection, schedule: Q01DX009 (ip), vehicle: saline 113 % of control

OC(O)C(F)(F)F
inactive: dose: 15.0 mg/kg/injection, schedule: Q04DX003 (ip), vehicle: saline with Tween-80 100 % of control | dose: 30.0 mg/kg/injection, schedule: Q04DX003 (ip), vehicle: saline with Tween-80 100 % of control | dose: 60.0 mg/kg/injection, schedule: Q04DX003 (ip), vehicle: saline with Tween-80 95 % of control | [6] 104 % of control | [7] 113 % of control | [20] 104 % of control

CN(C)c1ccc(C(=O)NN)cc1
inactive: [21] 91 % of control | [22] 91 % of control | [9] 122 % of control | dose: 25.0 mg/kg/injection, schedule: Q04DX003 (ip), vehicle: saline with Tween-80 100 % of control | [3] 115 % of control | [4] 98 % of control | [5] 121 % of control | [6] 107 % of control | [8] 100 % of control | [7] 109 % of control | dose: 300.0 mg/kg/injection, schedule: Q01DX009 (ip), vehicle: saline with Tween-80 106 % of control

COc1cc(NCCN2CCN(CCNc3cc(OC)cc4cccnc34)CC2)c2ncccc2c1
inactive: [3] 113 % of control | [5] 110 % of control | [8] 94 % of control

CCN1c2ccccc2CC(CCCN(C)C)(C(N)=O)c2ccccc21 (centres undefined)
inactive: [10] 97 % of control | dose: 200.0 mg/kg/injection, schedule: Q01DX009 (ip), vehicle: saline 98 % of control

CN(C)c1ccc(/C=C2\C=Cc3ccccc32)cc1
inactive: dose: 3.12 mg/kg/injection, schedule: Q04DX003 (ip), vehicle: saline with Tween-80 90 % of control | dose: 6.25 mg/kg/injection, schedule: Q04DX003 (ip), vehicle: saline with Tween-80 90 % of control | dose: 12.5 mg/kg/injection, schedule: Q04DX003 (ip), vehicle: saline with Tween-80 92 % of control and 100 % of control | [9] 100 % of control | [3] 103 % of control | [5] 96 % of control and 100 % of control | [8] 90 % of control | [20] 96 % of control

NC(C(=O)O)C(O)c1cnc[nH]1 (centres undefined)
inactive: dose: 25.0 mg/kg/injection, schedule: Q01DX009 (ip), vehicle: water 101 % of control | dose: 50.0 mg/kg/injection, schedule: Q01DX009 (ip), vehicle: water 96 % of control | dose: 100.0 mg/kg/injection, schedule: Q01DX009 (ip), vehicle: water 97 % of control | dose: 200.0 mg/kg/injection, schedule: Q01DX009 (ip), vehicle: water 93 % of control | dose: 400.0 mg/kg/injection, schedule: Q01DX009 (ip), vehicle: water 97 % of control

CC1(C)N=C(N)N=C(N)N1c1ccc(CCc2ccccc2)cc1
inactive: dose: 22.0 mg/kg/injection, schedule: Q01DX009 (ip), vehicle: saline with Tween-80 104 % of control | dose: 33.0 mg/kg/injection, schedule: Q01DX009 (ip), vehicle: saline with Tween-80 100 % of control | [3] 112 % of control

CS(=O)CC(O)(c1cccs1)C1CC1 (centres undefined)
inactive: [3] 103 % of control | [5] 117 % of control | [8] 98 % of control

CCCCCCCCCCCCCC(C)NCc1ccccc1 (centres undefined)
inactive: dose: 3.13 mg/kg/injection, schedule: Q01DX009 (ip), vehicle: saline with Tween-80 95 % of control | [21] 100 % of control | [22] 100 % of control

Nc1cc2c(c[n+](Cc3ccccc3)c3ccccc23)c2ccccc12
inactive: dose: 3.13 mg/kg/injection, schedule: Q04DX003 (ip), vehicle: other 98 % of control

Cc1cc2c(c3ncccc13)OCN(Cc1ccc(Cl)c(Cl)c1)C2
inactive: [22] 113 % of control | [9] 108 % of control | [3] 104 % of control

c1cc2cccc3c2c(c1)c1sc2c4cccc5cccc(c54)c2c31
inactive: [6] 91 % of control | [7] 100 % of control

CC(=O)NS(=O)(=O)c1ccc(NC(=O)/C=C/C(=O)O)cc1
inactive: [6] 104 % of control | [7] 118 % of control | [20] 104 % of control

CC1(C)C=C(C(Br)c2cccc(Br)c2)C(=O)c2ccccc21 (centres undefined)
inactive: [13] 120 % of control | [11] 90 % of control | [14] 110 % of control | [12] 95 % of control | [15] 110 % of control | [18] 109 % of control

CCC1OCC(C(Cl)CCl)O1 (centres undefined)
inactive: [5] 118 % of control | [6] 113 % of control | [7] 118 % of control | [20] 104 % of control
